The test system of one assay is GST-DCAF10. The assay can be described thus: Streptavidin pull-down of GST-DCAF10 with biotinylated Nt-peptides. The format is binding, human. The conditions noted are these: 0.5 µM GST-DCAF10, 5 µM peptide, 1 h RT, WB. The procedure:
To confirm direct interactions between peptides and DCAF10, we performed pull-down assays using bead-bound Nt-peptide variants incubated with purified full-length GST-DCAF10 or GST as a negative control (Fig. 2m–p and Supplementary Fig. 4a).
230 of 1:100), and desalted/concentrated on C18 reversed phase stage tips as previously
MS measurements settings are stated in MS measurements and raw file
BL21(DE3) cells (Thermo Fisher Scientific,
240 agar) plate containing 100 μg/mL ampicillin and 34 μg/mL chloramphenicol, then
Terrific broth (TB) medium (24 g/L yeast extract,
243 20 g/L tryptone, glycerol 4 mL/L, 100 mL/L phosphate buffer containing 0.17 M KH2PO4
244 and 0.72 M K2HPO4) was used to prepare a 1:100 dilution of the starter culture, and OD600
At OD600 = 1, protein induction was initiated by adding 1 mM
247 day, pellets were homogenized and lysed in glycerol lysis buffer (20 mM Tris-HCl pH
Lysis was performed on ice for 30 min, followed by
250 sonication (7 × 20 sec pulses with 20 sec breaks on ice) using a Bandelin sonoplus
Lysates were centrifuged at 4°C for 1 h
253 medium culture was lysed in 20 mL of supernatant (collected in 20 × 1 mL tubes). GST
255 agarose bead; Thermo Fisher Scientific, Waltham, MA, USA). For each 1 mL of
100 μL of GST magnetic beads
257 were washed twice with 500 μL of wash buffer (125 mM Tris-HCl pH 7.4, 150 mM NaCl,
The lysis supernatant was diluted 1:1 with
259 wash buffer, and incubated with the beads on an end-over-end rotator for 1 h at 25°C.
260 After incubation, the supernatant was removed, and the beads were washed twice with
Protein elution was then performed by incubating
263 pH 7.4, 250 mM NaCl, 0.3% Triton X-100) for 30 min at 25°C on an end-over-end rotator.
265 under the same conditions. Elution fractions were pooled and concentrated by
266 centrifugation (4°C, 25 min, 4500 rpm) using a 30 kDa cut-off concentrator (Merck
267 Millipore, #UFC803008, Darmstadt, Germany). Purified proteins were analyzed by
268 colloidal Coomassie stain, WB and MS.
270 Streptavidin pull-downs with GST-DCAF10 and biotinylated peptides
271 Streptavidin magnetic beads (DynabeadsTM MyOneTM Streptavidin T1; Thermo Fisher
272 Scientific, Waltham, MA, USA) were washed twice with 500 μL of wash buffer (125 mM
273 Tris-HCl pH 7.4, 150 mM NaCl, 0.1% Triton X-100). An excess of peptides was added
274 (to ensure full occupancy of the beads) and incubated for 30 min at RT. After peptide
275 binding, beads were again washed three times with 500 μL of wash buffer. The pull-down
276 was then performed in a 100 μL reaction volume with final concentrations of 0.5 µM
277 GST-DCAF10 and 5 µM peptide. GST-DCAF10 or GST alone (as a control) was added
278 to the peptide-streptavidin beads and incubated on a rotator for 1 h at RT. After incubation,
279 the beads were washed three times with 500 μL of wash buffer and resuspended in 4x
280 Laemmli buffer. 1/5 of the input (GST-DCAF10 and GST) and 9/10 of the sample were
281 loaded on a 10% SDS gel and blotted with anti-GST and anti-DCAF10 antibodies, while
282 1/10 was loaded on a 15% SDS gel and blotted with anti-streptavidin antibody to assess
283 equal peptide loading.
285 Streptavidin Sepharose High Performance, GE Healthcare, Chicago, IL, USA) were used.
286 After washing with a high salt wash buffer without detergents (125 mM Tris-HCl pH 7.4,
287 400 mM NaCl), an excess of peptides was added and incubated for 30 min at RT. For each
288 reaction, 10 µL of slurry beads were used. After peptide-binding, beads were again
289 washed once with a high salt wash buffer without detergents and twice with binding buffer
290 without detergents (125 mM Tris-HCl pH 7.4, 150 mM NaCl). The pull-downs were
291 performed in a 100 μL reaction volume in binding buffer without detergents with a final
292 concentration of 0.5 µM GST-DCAF10 and incubated rotating for 1 h at RT. After
293 incubation, the beads were washed five times with 500 μL of high salt wash buffer without […]

A further assay relates to DCAF10. The assay can be described thus: Peptide pull-down with quantitative MS, HeLa lysate, DCAF10. In kind it is binding, human (HeLa). The conditions noted are these: HeLa lysate; for DCAF10 binding (in words): Nt-Ac vs Nt-free peptides.
In assay [1] the test system is DLD-1 Flp-In T-REx and Lyn KO cells. Briefly: Level of Lyn / Lyn-GFP variants after NMT1/2 and DCAF10 siRNA, Western blot. The format is cell-based, human. The following applies: WB/vinculin, n = 3. The text has this:
To further investigate the role of the Nt-amino acid and its modification in DCAF10 recognition and DCAF10-dependent ubiquitination, we used the CRISPR/Cas9 technique to knock out Lyn in DLD-1 cell lines with T-REx Flp-In background (DLD-1 Lyn KO Flp-In T-REx) (Supplementary Fig. 7a–c). We then integrated Lyn^WT-GFP and two Nt-mutants (Lyn^G2A-GFP and Lyn^G2P-GFP) under a doxycycline-inducible promoter into the Flp-In cassette. Alanine (G2A) is expected to be efficiently acetylated by NatA, generating an Nt-acetylated Lyn mutant. Conversely, the proline (G2P) mutant, is expected not to be acetylated and may retain a free N-terminus[3],[36],[37]. Doxycycline-induced expression of Lyn^WT-GFP, Lyn^G2A-GFP, and Lyn^G2P-GFP was confirmed by Western blot, MS, and fluorescence microscopy (Supplementary Figs. 7d, e; 8a and Supplementary Data 6). While all constructs were ~2–5-fold higher expressed than endogenous Lyn, G2A and G2P were further elevated relative to WT, which may reflect increased stability when Nt-Gly/acetylation is altered (Supplementary Fig. 7e). […] Lyn^WT-GFP mirrored the behavior of endogenous Lyn under NMT1/2 siRNA treatment. Lyn levels decreased with NMT1/2 KD, but were rescued when siRNAs targeting both NMT1/2 and DCAF10 were applied (Fig. 6a, b). […] The weaker reduction of Lyn^WT-GFP may result from Lyn overexpression and the limiting availability of DCAF10.
Fig. 6 N-terminal glycine mutation abolishes DCAF10-dependent stability and ubiquitination. a DLD-1 Flp-In T-REx cells and Lyn KO cells expressing Lyn^WT-GFP, Lyn^G2A-GFP, or Lyn^G2P-GFP were induced for 24 h with 100 ng/mL doxycycline. Cells were treated with NMT1/2 siRNA, DCAF10 siRNA, or both (or left untreated) for 72 h. Representative WBs are shown. Filled circles represent siRNA treatment, empty circles untreated. b WB quantifications of Lyn levels normalized to vinculin. Purple: untreated with NMT1/2 siRNA; blue: treated with NMT1/2 siRNA. Mean ± s.d. with individual data points are shown (n = 3 independent biological replicates). c Schematic of ubiquitination experiments. Created in BioRender. […] Lysates have been treated with NMT1/2 RNAi for 72 h. i Quantification of in vitro ubiquitination assays. Mean ± s.d. with individual data points are shown (n = 3 independent ubiquitination assays). Volcano plots of Lyn-GFP^WT binding partners: j NMT1/2 siRNA ± doxycycline (Dox); k Control ± doxycycline; l NMT1/2 siRNA vs. control both with doxycycline. The −log10 adjusted p-value (two-sided Student’s t test with permutation-based multiple-testing correction; y-axis) is plotted against the log2 fold change (x-axis). Threshold for significance: −log10 p-value ≥ 1.3 (p ≤ 0.05), log2 fold change ≤ −1 or ≥ 1. DCAF10 and Lyn-GFP are marked in green, significant binding partners in purple and in blue, respectively. Source data are provided as a Source data file.
DLD-1 Lyn knockout (KO) Flp-In T-REx cells were generated by CRISPR/Cas9 electroporation using two guide RNAs targeting the LYN locus. Editing and clone validation were confirmed by genomic sequencing, Western blotting, and MS[51]. Stable cell lines expressing doxycycline-inducible Lyn-GFP (WT, G2A, or G2P) were established by FRT/Flp-mediated recombination and validated by antibiotic selection, Western blotting, and fluorescence microscopy. Detailed protocols are provided in the Supplementary Methods and Tables.
461 electroporated using the CM137 program. Following electroporation, the cells were kept […]

As to “GAVTDDEVIRKK [Ac-THOC7, Nt-peptide of THOC7, Nt-acetylated]”, the “Binding to GST-DCAF10 (in words)” value with GST-DCAF10 is on record as “neither Nt-acetylated nor Nt-free THOC7 peptides or GST alone bound DCAF10”. Besides, the “DCAF10 binding (in words)” value with DCAF10 is on record as “did not bind DCAF10 significantly”.

Regarding “GCVQCKDKEAKK [Ac-Fyn, Nt-peptide of Fyn, Nt-acetylated]”, in the assay on GST-DCAF10 (listed as Nt-acetylated Fyn), the “Binding to GST-DCAF10 (in words)” value is “bound robustly to GST-DCAF10”. In addition, in the assay on DCAF10, the “DCAF10 binding, Nt-Ac vs Nt-Myr (in words)” value is listed as “DCAF10 selectively recognizes the acetylated form” and the “DCAF10 binding (in words)” value is on record as “bound to DCAF10”.

For the substance “endogenous Lyn: endogenous Lyn kinase of DLD-1 cells”, in assay [1] (DLD-1, 72 h NMT1/2 siRNA, 24 h doxycycline 100 ng/mL, average), the “Level decrease following NMT1/2 KD” value turned out to be 31%. For the same substance, the “Level increase upon combined NMT1/2 and DCAF10 KD” value in assay [1] (DLD-1, 72 h siRNA) is 36.5%.

The record behind these values is paper PMC12775124, “CUL4A-DDB1-DCAF10 is an N-recognin for N-terminally acetylated Src kinases” (Nature Communications, 2026).
